Test results reported in patent publication US8420307B2, “Sperm cryoprotective media” (The Jackson Laboratory, priority 2006, dated 2013).
Entries after “also recorded” stand apart in the source; their conditions may differ.

Key:
[1] = system: cryopreserved mouse sperm; test: In vitro fertilization with thawed cryopreserved sperm: fertilization rate (#2-cell embryos/# total oocytes); assay type: cell-based; details: for effect on fertilization rate / fertility of cryopreserved C57BL/6J sperm: MTG 159 μM to 636 μM in CPM, relative to presently-available methods, FIG. 1
Method: The epididymides and vas deferentia are extracted from the C57BL/6J male and placed into the cryoprotective media described herein. […] Incisions are made in the tissues, allowing the sperm to swim out into the CPM; this is allowed for at least 5 but for less than 20 min. The residual tissues are then removed from the collection drop. Ten micro liters of the sperm sample are loaded into as many as one hundred 250 μL French straws (IMV; Maple Grove, Minn.). Two hundred and fifty microliter straws, containing a 5.5 cm column of CPM, a 2.5 cm column of air, a 0.6 cm column of sperm sample followed by a column of air, are sealed with an instantaneous heat sealer. The straws are loaded into cassettes and exposed to liquid nitrogen vapor for at least 10 min before being plunged into the liquid nitrogen. This essentially cools the sperm at 37° C./min.
Subsequent to storage in liquid nitrogen, 3 samples from each treatment are thawed in a 37° C. water bath for 30 sec, and then each 10 μL aliquot is placed directly into its own 500 μL in vitro fertilization (IVF) drop of Cooks Mouse Vitro Fert (Cook Australia; Queensland, Australia). After an hour of incubation, 4 cumulus intact oocyte clutches from superovulated C57BL/6J females are added to the in vitro fertilization drops. IVF is carried out using methods known to those of skill in the art, such as by the methods described by Nakagata. (Nakagata, 2000a; Nakagata, 2000b). The sperm and oocytes are incubated together for 4 hrs before the presumptive zygotes are removed from the IVF drop and placed in a culture drop for overnight incubation.
Approximately 18 hours later, the percentage of oocytes developing into 2-cell embryos is determined (#2-cell embryos/# total oocytes). For statistical analysis, percents are arcsine transformed and the averages of at least 3 IVF drops per treatment are evaluated with a T-Test. A difference between treatments is illustrated with an asterisk (p<0.05). For presentation, means and standard errors were converted back into percents. […]
Ten μL aliquots of sperm from a variety of mouse strains as listed in Table 7 are frozen in the CPM with 477 μM monothioglycerol as ROS(CPM). A total of at least 6 sperm samples per treatment within a strain are utilized. These represented at least 3 samples from each of at least 2 sets of 2 males whose sperm are pooled at the time of collection and then split into the two treatments. Subsequent to thawing the samples are placed directly into their own 500 μL in vitro fertilization (IVF) drop of Cooks Mouse Vitro Fert (Cook Australia; Queensland, Australia; (Quinn et al., 1995)). After an hour incubation, 4 cumulus intact oocyte clutches from isogenic strains were added to the incubation medium. Following a 4 hr co-incubation, the presumptive zygotes were washed and cultured overnight. Approximately 18 hours later, the fertilization rate was determined (% 2 cell: #2-cell embryos/# total oocytes, see Table 7). The average percentage was determined. For each line, about 30 2-cell embryos were implanted into receptive females. After approximately 21 days, the number of live born mice was determined, shown as % Live born in Table 7.
To determine if storage of the cryoprotective media at −80° C. altered the activity of the C57BL/6J mouse sperm., in vitro fertilizations (IVF) were preformed as described previously (see Example 1, also see publications by Nakagata, 2000a; Nakagata, 2000b, Sztein et al. 2000; Byers et al. 2006). Briefly the sperm and oocytes, both from C57BL/6J mice, were incubated together for 4 hrs in a benchtop incubator at 37° C. After 4 hrs of co-incubation the presumptive zygotes were washed through two 150 μL drops of IVF media (MVF; Cook's; Spencer, Ind.) and then cultured overnight. Approximately 18 hrs later, the proportion of oocytes fertilized was calculated by dividing the number of two-cell embryos by the sum of two-cells and normally appearing presumptive one-cell oocytes. […]

[2] = system: C57BL/6 Sperm; test: Post-thaw motility of mouse sperm (IVOS computerized semen analysis); assay type: cell-based; details: for IVF Fit: motility of at least 5% is required to achieve fertilization in IVF
Method: To determine the concentration, motility, and progressive motility of “freshly-collected” sperm, the sperm is typically diluted 1:20 in either phosphate buffered saline or Cooks Mouse Vitro Fert (Cook Australia; Queensland, Australia; (Quinn et al., 1995)). To assess thawed sperm, sperm is incubated in IVF medium for an hour, at a dilution of 1:50 in the IVF drop. It is then loaded into a Hamilton Thom IVOS computerized semen analyzer (Hamilton Thom, Beverly, Mass.). For measurement, the calibration parameters are set as follows: • Apply Sort: 2 • Frames acquired: 30 • Frame rate: 60 Hz • Minimum contrast: 30 • Minimum Cell Size: 4 pixels • Minimum Static Contrast: 15 • Straightness (STR), Threshold: 50% • Low VAP Cutoff: 10.0 μm/s • Medium VAP Cutoff: 50.0 μmis • Low VSL Cutoff: 0.0 grids • Head Size, Non-Motile: 13 pixels • Head Intensity, Non-Motile: 75 • Static Head Size: 0.57 to 2.91 • Static Head Intensity: 0.14 to 1.84 • Static Elongation: 0 to 87 • Slow Cells Motile: YES • Magnification: 0.82 • Video Source Camera • Video Frequency: 60 • Bright Field No • Brightness for LED: 2663 • Brightness for Ident: 3000 • Temperature, Set: 37° C.
If the compound is capable of reducing ROS at the tested concentration, then its effect on sperm motility and fertilization is tested. While the sperm motility assay is a helpful fast screening tool in the case of mouse, this assay is not required for mouse and one can perform only the IVF assay in the case of mouse. For other species, e.g. bovine, the sperm motility assay together with the fluorescence assay is sufficient. The sperm motility assay can be done either with fresh or cryopreserved sperm. For example, the motility can be determined as described in Example 6 (Determination of Sperm Concentration and Motility), using an IVOS instrument. Briefly, C57BL/6 sperm were diluted 1:50 in pre-warmed and gassed mouse vitro fert (Cook's; Spencer, Ind.) under light mineral oil. The samples were incubated for an hour at 37° C., in a humidified atmosphere of 5% CO2, 5% O2 and 90% nitrogen in a K-MINC-1000 bench top incubator (Cook's; Spencer, Ind.). After incubation, the sperm were drawn into 0.1×2.0 mm I.D. tubes (VitroCom Inc. Mt Lks. N.J.) using capillary action and 3 manually selected fields per sample were analyzed for motility using the Hamilton Thorn (Beverly, Mass.) integrated visual optics system (IVOS) for computerized semen analysis. Applicants have shown that sperm frozen in CPM containing no free radical scavenger, 0.477 mM MTG, 0.1 mM DTT, 1 mM DTT, 5 mM DTT, 20 mM DTT, 0.5 mM GSH, 1 mM GSH, 5 mM GSH or 50 mM GSH can be assessed for motility and that motility of at least 5% is required to achieve fertilization in IVF.

[3] = C57BL/6 sperm cryopreserved in CPM containing 1 mM free radical scavenger
[4] = C57BL/6 sperm cryopreserved in CPM containing 5 mM free radical scavenger
[5] = C57BL/6 sperm frozen in CPM containing 1 mM free radical scavenger
[6] = C57BL/6 sperm frozen in CPM containing 5 mM free radical scavenger

O[C@H](CS)[C@H](O)CS (racemic) [DTT, dithiothreitol]
Fertilization Rate (2-cell embryos of total oocytes) ([1]; C57BL/6 sperm cryopreserved in CPM containing 0.1 mM free radical scavenger): 19.2% | Fertilization Rate (2-cell embryos of total oocytes) [1, 3]: 2% | Fertilization Rate (2-cell embryos of total oocytes) [1, 4]: 0.9% | Fertilization Rate (2-cell embryos of total oocytes) ([1]; C57BL/6 sperm cryopreserved in CPM containing 20 mM free radical scavenger): 6.4% | IVF Fit ([2]; 0.1 mM): yes | IVF Fit ([2]; 1 mM): yes | IVF Fit ([2]; 5 mM): yes | IVF Fit ([2]; 20 mM): no | Average Post Thaw Motility ([2]; C57BL/6 sperm frozen in CPM containing 0.1 mM free radical scavenger): 24.6% | Average Post Thaw Motility [2, 5]: 34% | Average Post Thaw Motility [2, 6]: 17.6% | Average Post Thaw Motility ([2]; C57BL/6 sperm frozen in CPM containing 20 mM free radical scavenger): 1.6%

N[C@@H](CCC(=O)N[C@@H](CS)C(=O)NCC(=O)O)C(=O)O [GSH, reduced glutathione]
Fertilization Rate (2-cell embryos of total oocytes) ([1]; C57BL/6 sperm cryopreserved in CPM containing 0.5 mM free radical scavenger): 59.7% | Fertilization Rate (2-cell embryos of total oocytes) [1, 3]: 49.5% | Fertilization Rate (2-cell embryos of total oocytes) [1, 4]: 39.9% | Fertilization Rate (2-cell embryos of total oocytes) ([1]; C57BL/6 sperm cryopreserved in CPM containing 50 mM free radical scavenger): 0.0% | effect on fertilization rates / fertility of cryopreserved C57BL/6J sperm ([1]; GSH 500 μM to 5 mM in CPM, compared to CPM without a reducing agent, FIG. 2): increase the fertilization rates; also recorded: enhances the fertility | IVF Fit ([2]; 0.5 mM): yes | IVF Fit ([2]; 1 mM): yes | IVF Fit ([2]; 5 mM): yes | IVF Fit ([2]; 50 mM): no | Average Post Thaw Motility ([2]; C57BL/6 sperm frozen in CPM containing 0.5 mM free radical scavenger): 32% | Average Post Thaw Motility [2, 5]: 25.3% | Average Post Thaw Motility [2, 6]: 41.67% | Average Post Thaw Motility ([2]; C57BL/6 sperm frozen in CPM containing 50 mM free radical scavenger): 0.6%

OCC(O)CS (stereo not shown) [MTG, monothioglycerol]
MTG concentration that provided the best results (fertilization rate) ([1]; C57BL/6J sperm, MTG tested from 159 μM to 636 μM): 477 µM | Fertilization Rate (2-cell embryos of total oocytes) ([1]; C57BL/6 sperm cryopreserved in CPM containing 0.477 mM free radical scavenger): 75.2% | effect on fertilization rate / fertility of cryopreserved C57BL/6J sperm [1]: improved fertilization rate | effect on fertilization rate / fertility of cryopreserved C57BL/6J sperm ([1]; listed as monothioglycerol): enhances the fertility | IVF Fit ([2]; 0.477 mM): yes | Average Post Thaw Motility ([2]; C57BL/6 sperm frozen in CPM containing 0.477 mM free radical scavenger): 16%
